Experimental data taken from patent publication US20070287844A1, “Novel Crystal of N-[3-(Formylamino)-4-Oxo-6-Phenoxy-4h-Chromene-7-Yl] Methanesulfonamide” (Toyama Chemical Co., Ltd., priority 2003, published 2007).

Assay: Influence of humidity: water content of crystals after standing at controlled relative humidity
Type: physicochemical
Conditions: 7 days, 25° C.; for Change of water content with rising relative humidity: 22 to 93% RH
Experimental: Test Example 1 Influence of Humidity After being allowed to stand the compounds of the present invention (T-614β, T-614γ and T-614 hydrate) and the compound disclosed as Example 5 in Japanese Patent Laid-Open No. 5-97840 (T-614α) under the relative humidity 22, 51, 75 and 93% RH for 7 days at 25° C., the water content of each crystal was measured.

| Change of water content with rising relative humidity | Stability under a high humidity condition | Water content (%) (relative humidity 22% RH) | Water content (%) (relative humidity 51% RH) | Water content (%) (relative humidity 75% RH) | Water content (%) (relative humidity 93% RH) | Compound |
| --- | --- | --- | --- | --- | --- | --- |
| almost kept unchanged | stable under a high humidity condition | 0.54 | 0.25 | 0.21 | 0.18 | CS(=O)(=O)Nc1cc2occ(NC=O)c(=O)c2cc1Oc1ccccc1 [T-614β, N-[3-(formylamino)-4-oxo-6-phenoxy-4H-chromen-7-yl]methanesulfonamide] |
| almost kept unchanged | stable under a high humidity condition | 4.09 | 4.15 | 4.08 | 4.03 | CS(=O)(=O)Nc1cc2occ(NC=O)c(=O)c2cc1Oc1ccccc1 [T-614 hydrate, N-[3-(formylamino)-4-oxo-6-phenoxy-4H-chromen-7-yl]methanesulfonamide] |
| almost kept unchanged | stable under a high humidity condition | 0.28 | 0.33 | 0.52 | 0.65 | CS(=O)(=O)Nc1cc2occ(NC=O)c(=O)c2cc1Oc1ccccc1 [T-614γ, N-[3-(formylamino)-4-oxo-6-phenoxy-4H-chromen-7-yl]methanesulfonamide] |

| Compound | Change of water content with rising relative humidity | Stability under a high humidity condition | Water content (%) (relative humidity 22% RH) | Water content (%) (relative humidity 51% RH) | Water content (%) (relative humidity 75% RH) | Water content (%) (relative humidity 93% RH) |
| --- | --- | --- | --- | --- | --- | --- |
| CS(=O)(=O)Nc1cc2occ(NC=O)c(=O)c2cc1Oc1ccccc1 [T-614α, N-[3-(formylamino)-4-oxo-6-phenoxy-4H -chromen-7-yl]methanesulfonamide, reference compound] | increased with the rising of relative humidity |  | 0.30 | 1.29 | 2.88 | 3.62 |
